From patent publication US10758534B2 (Vertex Pharmaceuticals Incorporated, priority 2014, dated 2020)

Biological target: T1, F508del (Homo sapiens, UniProt P13569, DEL508-508)
T1 construct: expressed in transfected cells
Assay: Protocol 1: membrane potential optical assay (FLIPR III, voltage sensing dye), identification of potentiator compounds
Type: cell-based
Conditions: Table 3, compounds of Table 1
Procedure, shortened: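 Mouse NIH 3T3 fibroblasts stably expressing F508del, temperature-corrected at 27 °C for 24 h, pretreated with compound, then loaded with voltage-sensing redistribution dye. Forskolin was added in a single step with a chloride gradient (chloride-free gluconate bath; Bath Solution #1 HEPES pH 7.4). Membrane-potential fluorescence read on FLIPR III.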

T1 sequence (P13569 with tags, fused parts or gaps DEL508-508): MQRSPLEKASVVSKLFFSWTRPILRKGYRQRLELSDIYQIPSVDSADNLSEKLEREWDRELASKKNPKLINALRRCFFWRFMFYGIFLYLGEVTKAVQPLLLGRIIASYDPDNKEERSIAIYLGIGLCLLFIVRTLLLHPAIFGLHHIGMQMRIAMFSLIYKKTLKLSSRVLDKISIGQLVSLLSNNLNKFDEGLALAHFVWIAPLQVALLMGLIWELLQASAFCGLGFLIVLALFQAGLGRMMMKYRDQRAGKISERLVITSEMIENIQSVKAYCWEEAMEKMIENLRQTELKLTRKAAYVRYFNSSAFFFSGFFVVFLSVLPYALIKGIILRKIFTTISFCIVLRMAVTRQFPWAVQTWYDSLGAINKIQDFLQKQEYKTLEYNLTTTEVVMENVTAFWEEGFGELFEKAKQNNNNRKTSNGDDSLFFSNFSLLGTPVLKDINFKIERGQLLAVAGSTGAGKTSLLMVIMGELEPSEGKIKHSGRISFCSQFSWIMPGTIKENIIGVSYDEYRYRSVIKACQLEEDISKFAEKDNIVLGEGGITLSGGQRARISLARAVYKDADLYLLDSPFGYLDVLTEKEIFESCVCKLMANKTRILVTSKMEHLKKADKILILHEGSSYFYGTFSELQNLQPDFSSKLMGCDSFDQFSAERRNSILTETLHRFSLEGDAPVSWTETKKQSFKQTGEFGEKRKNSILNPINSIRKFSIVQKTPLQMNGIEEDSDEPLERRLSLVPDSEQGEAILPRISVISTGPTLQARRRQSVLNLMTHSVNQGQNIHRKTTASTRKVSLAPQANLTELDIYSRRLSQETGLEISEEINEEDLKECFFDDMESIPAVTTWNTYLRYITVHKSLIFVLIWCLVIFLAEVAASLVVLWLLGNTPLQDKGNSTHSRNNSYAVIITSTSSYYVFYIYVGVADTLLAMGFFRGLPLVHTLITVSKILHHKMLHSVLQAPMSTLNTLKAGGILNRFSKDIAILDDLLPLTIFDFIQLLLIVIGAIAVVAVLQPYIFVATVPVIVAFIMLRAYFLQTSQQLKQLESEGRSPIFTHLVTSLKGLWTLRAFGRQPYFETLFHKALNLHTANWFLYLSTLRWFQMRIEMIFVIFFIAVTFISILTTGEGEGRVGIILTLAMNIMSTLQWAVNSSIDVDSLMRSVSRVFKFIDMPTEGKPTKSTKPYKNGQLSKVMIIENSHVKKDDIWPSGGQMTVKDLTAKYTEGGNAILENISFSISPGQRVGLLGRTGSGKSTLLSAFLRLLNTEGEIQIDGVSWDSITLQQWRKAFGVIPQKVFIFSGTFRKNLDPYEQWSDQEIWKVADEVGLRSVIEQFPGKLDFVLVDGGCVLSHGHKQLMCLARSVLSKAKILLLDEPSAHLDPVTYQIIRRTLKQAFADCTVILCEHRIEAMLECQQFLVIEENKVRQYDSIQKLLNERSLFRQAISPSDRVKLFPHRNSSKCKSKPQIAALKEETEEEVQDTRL

Compound | EC30
Cc1ccccc1-c1nc(C(C)(C)C)ccc1C(=O)NS(=O)(=O)c1cccc(N)c1 [Compound 1036, N-(3-aminophenyl)sulfonyl-6-tert-butyl-2-(o-tolyl)pyridine-3-carboxamide] | + (“+” means greater than 10 uM)
CC1CCN(c2nc(C(C)(C)C)ccc2C(=O)NS(=O)(=O)c2ccc(N)cc2)CC1 [Compound 1037, N-(4-aminophenyl)sulfonyl-6-tert-butyl-2-(4-methyl-1-piperidyl)pyridine-3-carboxamide] | ++ (“++” means between 3 uM and 10 uM)
CC(C)(C)c1ccc(C(=O)NS(=O)(=O)c2cccc(N)n2)c(N2CCC(C(C)(C)O)CC2)n1 [Compound 1038, N-[(6-amino-2-pyridyl)sulfonyl]-6-tert-butyl-2-[4-(1-hydroxy-1-methyl-ethyl)-1-piperidyl]pyridine-3-carboxamide] | ++ (“++” means between 3 uM and 10 uM)
Cc1cc(C)c(CN2CCc3ccccc3CC2C(=O)NS(=O)(=O)c2ccccc2)c(C)c1 (centres unmarked) [Compound 1039, N-(benzenesulfonyl)-3-[(2,4,6-trimethylphenyl)methyl]-1,2,4,5-tetrahydro-3-benzazepine-4-carboxamide] | +++ (“+++” means <3 uM)
CC(C)Oc1ccc(-c2ccc(C(=O)NS(=O)(=O)c3cccc(N)n3)c(N3C(C)CCC3(C)C)n2)cn1 (centres unmarked) [Compound 1040, N-[(6-amino-2-pyridyl)sulfonyl]-6-(6-isopropoxy-3-pyridyl)-2-(2,2,5-trimethylpyrrolidin-1-yl)pyridine-3-carboxamide] | +++ (“+++” means <3 uM)
CC(C)COc1cc(F)cc(-c2ccc(C(=O)NS(=O)(=O)c3ccn[nH]3)c(N3C[C@@H](C)CC3(C)C)n2)c1 [Compound 1041, 6-(3-fluoro-5-isobutoxy-phenyl)-N-(1H-pyrazol-5-ylsulfonyl)-2-[(4S)-2,2,4-trimethylpyrrolidin-1-yl]pyridine-3-carboxamide] | +++ (“+++” means <3 uM)
CC1CCN(c2nc(-c3cc(F)cc(OC(C)C)c3)ccc2C(=O)NS(=O)(=O)c2cc[nH]n2)CC1 [Compound 1042, 6-(3-fluoro-5-isopropoxy-phenyl)-2-(4-methyl-1-piperidyl)-N-(1H-pyrazol-3-ylsulfonyl)pyridine-3-carboxamide] | +++ (“+++” means <3 uM)
CC(C)Oc1ccc(-c2ccc(C(=O)NS(=O)(=O)c3cccc(N)n3)c(N3CCC(C(F)(F)F)CC3)n2)cn1 [Compound 1043, N-[(6-amino-2-pyridyl)sulfonyl]-6-(6-isopropoxy-3-pyridyl)-2-[4-(trifluoromethyl)-1-piperidyl]pyridine-3-carboxamide] | +++ (“+++” means <3 uM)
COc1ncc(-c2ccc(C(=O)NS(=O)(=O)c3cc[nH]n3)c(Oc3c(C)cc(C)cc3C)n2)cc1C [Compound 1044, 6-(6-methoxy-5-methyl-3-pyridyl)-N-(1H-pyrazol-3-ylsulfonyl)-2-(2,4,6-trimethylphenoxy)pyridine-3-carboxamide] | +++ (“+++” means <3 uM)
CCC(Oc1nc(C(C)(C)C)ccc1C(=O)NS(=O)(=O)c1cccc(N)n1)c1ccccc1 (centres unmarked) [Compound 1045, N-[(6-amino-2-pyridyl)sulfonyl]-6-tert-butyl-2-(1-phenylpropoxy)pyridine-3-carboxamide] | ++ (“++” means between 3 uM and 10 uM)
CC(C)(C)c1ccc(C(=O)NS(=O)(=O)c2cccc(N)n2)c(Oc2ccccc2)n1 [Compound 1046, N-[(6-amino-2-pyridyl)sulfonyl]-6-tert-butyl-2-phenoxy-pyridine-3-carboxamide] | ++ (“++” means between 3 uM and 10 uM)
Cc1ccc(-c2ccc(C(=O)NS(=O)(=O)c3nccnc3N)c(Oc3c(C)cc(C)cc3C)n2)cc1 [Compound 1047, N-(3-aminopyrazin-2-yl)sulfonyl-6-(p-tolyl)-2-(2,4,6-trimethylphenoxy)pyridine-3-carboxamide] | +++ (“+++” means <3 uM)
Cc1cc(C)c(Oc2nc(-c3ccc4c(c3)CCO4)ccc2C(=O)NS(=O)(=O)c2cccc(N)n2)c(C)c1 [Compound 1048] | +++ (“+++” means <3 uM)
Cc1cc(C)c(Oc2nc(-c3cc(F)ccc3O)ccc2C(=O)NS(=O)(=O)c2cccc(N)n2)c(C)c1 [Compound 1049] | +++ (“+++” means <3 uM)
Cc1cc(C)c(Oc2nc(C3CC3)ccc2C(=O)NS(=O)(=O)c2cccc(N)n2)c(C)c1 [Compound 1050, N-[(6-amino-2-pyridyl)sulfonyl]-6-cyclopropyl-2-(2,4,6-trimethylphenoxy)pyridine-3-carboxamide] | ++ (“++” means between 3 uM and 10 uM)
CC(C)COc1cc(F)cc(-c2ccc(C(=O)NS(=O)(=O)c3cccc(N)n3)c(N3CC[C@@H](C)C3)n2)c1 [Compound 1051, N-[(6-amino-2-pyridyl)sulfonyl]-6-(3-fluoro-5-isobutoxy-phenyl)-2-[(3R)-3-methylpyrrolidin-1-yl]pyridine-3-carboxamide] | +++ (“+++” means <3 uM)
Cc1cc(C)c(Oc2nc(C3=CCC(C)CC3)ccc2C(=O)NS(=O)(=O)c2ccc[nH]c2=O)c(C)c1 (centres unmarked) [Compound 1052, 6-(4-methylcyclohexen-1-yl)-N-[(2-oxo-1H-pyridin-3-yl)sulfonyl]-2-(2,4,6-trimethylphenoxy)pyridine-3-carboxamide] | +++ (“+++” means <3 uM)
CC(C)COc1cc(F)cc(-c2ccc(C(=O)NS(=O)(=O)c3cccc(N)n3)c(OCC3(F)COC3)n2)c1 [Compound 1053, N-[(6-amino-2-pyridyl)sulfonyl]-6-(3-fluoro-5-isobutoxy-phenyl)-2-[(3-fluorooxetan-3-yl)methoxy]pyridine-3-carboxamide] | ++ (“++” means between 3 uM and 10 uM)
Cc1cc(C)c(Oc2nc(C(C)(C)C)ccc2C(=O)NS(=O)(=O)c2cccc(NCCN)n2)c(C)c1 [Compound 1054, N-[[6-(2-aminoethylamino)-2-pyridyl]sulfonyl]-6-tert-butyl-2-(2,4,6-trimethylphenoxy)pyridine-3-carboxamide] | +++ (“+++” means <3 uM)
Cc1cc(C)c(CN2CCc3ccccc3CC2C(=O)NS(=O)(=O)c2cccc(N)n2)c(C)c1 (centres unmarked) [Compound 1055, N-[(6-amino-2-pyridyl)sulfonyl]-3-[(2,4,6-trimethylphenyl)methyl]-1,2,4,5-tetrahydro-3-benzazepine-4-carboxamide] | ++ (“++” means between 3 uM and 10 uM)
Cc1cc(C)c(Oc2nc(-c3ccc4ccn(C)c4c3)ccc2C(=O)NS(=O)(=O)c2cccc(N)n2)c(C)c1 [Compound 1056, N-[(6-amino-2-pyridyl)sulfonyl]-6-(1-methylindol-6-yl)-2-(2,4,6-trimethylphenoxy)pyridine-3-carboxamide] | +++ (“+++” means <3 uM)
Cc1cc(C)c(Oc2nc(-c3ccnn3C)ccc2C(=O)NS(=O)(=O)c2cccc(N)n2)c(C)c1 [Compound 1057, N-[(6-amino-2-pyridyl)sulfonyl]-6-(2-methylpyrazol-3-yl)-2-(2,4,6-trimethylphenoxy)pyridine-3-carboxamide] | + (“+” means greater than 10 uM)
CC(C)CNc1cccc(-c2ccc(C(=O)NS(=O)(=O)c3cccc(N)n3)c(N3CC(C)CC3(C)C)n2)n1 (centres unmarked) [Compound 1059, N-[(6-amino-2-pyridyl)sulfonyl]-6-[6-(isobutylamino)-2-pyridyl]-2-(2,2,4-trimethylpyrrolidin-1-yl)pyridine-3-carboxamide] | +++ (“+++” means <3 uM)
